Source: US20060045953A1 (priority 2004, published 2006)

molecular target: T1, hT1R1/hT1R3 umami receptor (Homo sapiens, UniProt Q7RTX0+Q7RTX1); experiment: In vitro hT1R1/hT1R3 umami taste receptor activation assay (FLIPR, dose response); type: cell-based; conditions: Table A, Umami Amides; read-out: Umami EC50
T1 construct: expressed in transfected cells; host or cells: HEK293 derivative stably expressing Gα15, clone I-17, expression induced with mifepristone
T1 sequence (Q7RTX1 21-841): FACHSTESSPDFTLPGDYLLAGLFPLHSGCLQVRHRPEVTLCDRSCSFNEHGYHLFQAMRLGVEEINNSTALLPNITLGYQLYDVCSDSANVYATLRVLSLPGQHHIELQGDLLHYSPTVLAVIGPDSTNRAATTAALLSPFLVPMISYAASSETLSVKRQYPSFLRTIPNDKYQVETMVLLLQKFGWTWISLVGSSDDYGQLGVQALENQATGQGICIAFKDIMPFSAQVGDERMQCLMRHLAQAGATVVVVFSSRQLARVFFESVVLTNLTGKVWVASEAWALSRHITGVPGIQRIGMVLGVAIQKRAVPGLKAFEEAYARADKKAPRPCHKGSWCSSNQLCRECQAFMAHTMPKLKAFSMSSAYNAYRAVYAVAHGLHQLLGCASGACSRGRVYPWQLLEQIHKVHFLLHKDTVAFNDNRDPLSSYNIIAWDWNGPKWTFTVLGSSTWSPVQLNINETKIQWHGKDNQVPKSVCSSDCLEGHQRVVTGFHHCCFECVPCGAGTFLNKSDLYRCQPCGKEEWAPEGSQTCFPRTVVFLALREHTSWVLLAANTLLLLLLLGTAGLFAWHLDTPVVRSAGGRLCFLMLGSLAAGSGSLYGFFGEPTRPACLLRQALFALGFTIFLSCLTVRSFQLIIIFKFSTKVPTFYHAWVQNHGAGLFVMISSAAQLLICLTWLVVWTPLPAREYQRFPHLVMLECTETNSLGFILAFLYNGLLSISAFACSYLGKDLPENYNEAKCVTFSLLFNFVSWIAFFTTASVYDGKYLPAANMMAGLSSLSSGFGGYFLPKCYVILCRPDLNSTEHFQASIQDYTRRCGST
T1 sequence (Q7RTX0 21-852): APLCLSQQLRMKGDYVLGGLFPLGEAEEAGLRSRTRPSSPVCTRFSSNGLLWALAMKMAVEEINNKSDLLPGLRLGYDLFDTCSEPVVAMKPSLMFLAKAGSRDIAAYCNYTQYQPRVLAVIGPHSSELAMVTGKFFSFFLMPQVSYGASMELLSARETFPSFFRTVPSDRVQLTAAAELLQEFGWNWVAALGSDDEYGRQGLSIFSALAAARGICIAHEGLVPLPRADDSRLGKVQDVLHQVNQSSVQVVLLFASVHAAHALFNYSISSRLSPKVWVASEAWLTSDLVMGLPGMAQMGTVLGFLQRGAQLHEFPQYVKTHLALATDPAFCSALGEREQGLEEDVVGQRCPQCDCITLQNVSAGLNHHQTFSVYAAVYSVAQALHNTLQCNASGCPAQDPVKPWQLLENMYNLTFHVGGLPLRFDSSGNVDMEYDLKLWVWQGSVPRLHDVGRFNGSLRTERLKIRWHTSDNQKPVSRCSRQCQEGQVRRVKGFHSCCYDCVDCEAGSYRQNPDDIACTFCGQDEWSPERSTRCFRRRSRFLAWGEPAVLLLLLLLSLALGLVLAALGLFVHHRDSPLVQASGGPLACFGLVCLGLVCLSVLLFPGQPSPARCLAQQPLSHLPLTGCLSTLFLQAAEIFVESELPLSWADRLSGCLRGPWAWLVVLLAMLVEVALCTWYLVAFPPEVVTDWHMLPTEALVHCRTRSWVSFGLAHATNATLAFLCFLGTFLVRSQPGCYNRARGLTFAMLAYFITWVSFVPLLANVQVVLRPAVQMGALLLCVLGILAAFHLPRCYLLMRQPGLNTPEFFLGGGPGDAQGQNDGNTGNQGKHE
Description: In order to identify new savory flavoring agents and enhancers, including compounds with savory agonist and enhancer activities (dual activity), the compounds of Formula (I) were screened in primary assays and secondary assays including compound dose response and enhancement assay. In a primary assay for potential ability to modulate umami taste, amide compounds of Formula (I) that can be either savory flavoring agents in their own right or flavor enhancers of MSG are identified and scores of their activities are given as percentage of the maximum MSG intensity (%). In compound dose response, an EC50 is calculated to reflect the potency of the compound as a savory agonist or enhancer.
An HEK293 cell line derivative (See e.g., Chandrashekar, et al., Cell (2000) 100: 703-711) which stably expresses Gα15 and hT1R1/hT1R3 under an inducible promoter (see WO 03/001876 A2) was used to identify compounds with savory tasting properties.
For dose-responses analysis, stimuli were presented in duplicates at 10 different concentrations ranging from 1.5 nM to 30 μM. Activities were normalized to the response obtained with 60 mM monosodium glutamate, a concentration that elicits maximum receptor response. […] Identical results were obtained when analyzing the dose-response data using commercially available software for non-linear regression analysis such as GraphPad PRISM (San Diego, Calif.).

In order of rising EC50:
1. COC(=O)C(CC(C)C)NC(=O)c1cc2ccccc2o1 (stereo in doubt) [Example A5, 2-[(Benzofuran-2-carbonyl)-amino]-4-methyl-pentanoic acid methyl ester]  0.31 µM
2. COC(=O)C(CC(C)C)NC(=O)c1cc2cc(OC)ccc2o1 (stereo in doubt) [Example A6, 2-[(5-Methoxy-benzofuran-2-carbonyl)-amino]-4-methyl-pentanoic acid methyl ester]  0.32 µM
3. COC(=O)C(CC(C)C)NC(=O)c1cc2ccccc2s1 (stereo in doubt) [Example A4, 2-[(Benzo[b]thiophene-2-carbonyl)-amino]-4-methyl-pentanoic acid methyl ester]  0.4 µM

same assay, conditions: opposite enantiomers compared; read-out: AFFINITY FOR T1R1/T1R3 SAVORY RECEPTOR EC50 UM

In order of rising EC50:
1. COc1cccc(C(=O)N[C@H]2CCCc3ccccc32)c1N  0.01 µM
2. COc1ccc(C(=O)N[C@@H]2CCc3ccccc32)cc1C [(R)-N-(2,3-dihydro-1H-inden-1-yl)-4-methoxy-3-methylbeuzamide]  2.13 µM
3. CCOc1ccc(C(=O)N[C@@H]2CCc3ccccc32)cc1C [(R)-N-(2,3-dihydro-1H-inden-1-yl)-4-ethoxy-3-methylbenzamide]  4.53 µM

same assay, conditions: read-out: EC50 for activation of a hT1R1/hT1R3 umami receptor expressed in an HEK293 cell line

In order of falling EC50:
1. CCCC(CCC)NC(=O)c1ccc2c(c1)OC(CC(=O)OCC)O2 (stereo not drawn) [Example 19, Ethyl 2-(5-(heptan-4-ylcarbamoyl)benzo[d][1,3]dioxol-2-yl)acetate]  14 µM
2. CCCC(COC(C)=O)NC(=O)c1ccc2c(c1)OCO2 (stereo not drawn) [Example 14, 2-(benzo[d][1,3]dioxole-6-carboxamido)pentyl acetate]  11.9 µM
3. CCCC(CCC)NC(=O)c1ccc2c(c1)OC(C(C)C)O2 (stereo not drawn) [Example 21, N-(heptan-4-yl)-2-isopropylbenzo[d][1,3]dioxole-5-carboxamide]  11.5 µM
4. CC(C)CC(COP(=O)(O)O)NC(=O)c1ccc2c(c1)OCO2 (stereo not drawn) [Example 11, 2-(benzo[d][1,3]dioxole-6-carboxamido)-4-methylpentyl dihydrogen phosphate]  10.9 µM
5. CC(C)C[C@H](CO)NC(=O)c1ccc2c(c1)OCO2 [Example 8, (R)-N-(1-hydroxy-4-methylpentan-2-yl)benzo [d][1,3]dioxole-5-carboxamide]  9 µM
6. CCCC(CCC)NC(=O)c1ccc2c(c1)OCCCO2 [Example 24, N-(heptan-4-yl)-3,4-dihydro-2H-benzo[b][1,4]dioxepine-7-carboxamide]  6.4 µM
7. COC[C@@H](CC(C)C)NC(=O)c1ccc2c(c1)OCO2 [Example 9, (R)-N-(1-methoxy-4-methylpentan-2-yl)benzo[d][1,3]dioxole-5-benzo[d][1,3]dioxole-5-carboxylic acid]  3.5 µM
8. CC(C)C[C@@H](NC(=O)c1ccc2c(c1)OCO2)C(=O)N1CCCC1CO (stereo partly drawn) [Example 16, N-((R)-1-(2-(hydroxymethyl)pyrrolidin-1-yl)-4-methyl-1-oxopentan-2-yl)benzo[d][1,3]dioxole-5-carboxamide]  3 µM
9. CCCC(CCC)NC(=O)c1ccc2c(c1)OC(C)(C)O2 [Example 20, N-(heptan-4-yl)-2,2-dimethylbenzo[d][1,3]dioxole-5-carboxamide]  2.7 µM
10. CC(C)C[C@@H](NC(=O)c1ccc2c(c1)OCO2)C(=O)NCCc1cccnc1 [Example 15, (R)-N-(4-methyl-1-oxo-1-(2-(pyridin-3-yl)ethylamino)pentan-2-yl)benzo[d][1,3]dioxole-5-carboxamide]  1.7 µM
11. CCCC(CCC)NC(=O)c1ccc2c(c1)OC(F)(F)O2 [Example 22, 2,2-difluoro-N-(heptan-4-yl)benzo[d][1,3]dioxole-5-carboxamide]  1.51 µM
12. COC(=O)[C@H](NC(=O)c1ccc2c(c1)OCO2)C(C)C [Example 10, (R)-methyl 2-(benzo[d][1,3]dioxole-6-carboxamido)-3-methylbutanoate]  1.16 µM
13. CC(C)C[C@@H](NC(=O)c1ccc2c(c1)OCO2)C(=O)N(C)C [Example 13, (R)-N-(1-(dimethylamino)-4-methyl-1-oxopentan-2-yl) benzo[d][1,3]dioxole-5-carboxamide]  1.06 µM
14. CCCC(CCC)NC(=O)c1cc2ccccc2o1 [Example 25, benzofuran-2-carboxylic(1-propylbutyl)amide]  0.88 µM
15. CCCC(CC)NC(=O)c1cc2cc(C)ccc2o1 (stereo not drawn) [Example 28, N-(hexan-3-yl)-5-methylbenzofuran-2-carboxamide]  0.74 µM
16. O=C(NC1CCCc2ccccc21)c1ccc2c(c1)OCO2 (stereo not drawn) [Example 7, N-(1,2,3,4-tetrahydronaphthalen-1-yl)benzo[d][1,3]dioxole-5-carboxamide]  0.71 µM
17. CCCC(NC(=O)c1ccc2c(c1)OCO2)C(C)C (stereo not drawn) [Example 3, N-(2-methylhexan-3-yl)benzo[d][1,3]dioxole-5-carboxamide]  0.61 µM
18. CCC(CC(C)C)NC(=O)c1ccc2c(c1)OCO2 (stereo not drawn) [Example 5, N-(5-methylhexan-3-yl)benzo[d][1,3]dioxole-5-carboxamide]  0.57 µM
19. CCCC(CCC)NC(=O)c1ccc2c(c1)OCCO2 [Example 23, 2,3-Dihydro-benzo[1,4]dioxine-6-carboxylic acid (1-propyl-butyl)-amide]  0.49 µM
20. CC1CCCC(NC(=O)c2ccc3c(c2)OCO3)C1C (stereo not drawn) [Example 4, N-(2,3-dimethylcyclohexyl)benzo[d][1,3]dioxole-5-carboxamide]  0.45 µM
21. CCCC(CC)NC(=O)c1cc2cc(OC)ccc2o1 (stereo not drawn) [Example 29, N-(hexan-3-yl)-5-methoxybenzofuran-2-carboxamide]  0.4 µM
22. CCCC(CC(C)C)NC(=O)c1ccc2c(c1)OCO2 (stereo not drawn) [Example 2, N-(2-methylheptan-4-yl)benzo[d][1,3]dioxole-5-carboxamide]  0.22 µM
23. CCCC(CC)NC(=O)c1ccc(OC)c(C)c1 (stereo not drawn) [Example 12, N-(hexan-3-yl)-4-methoxy-3-methylbenzamide]  0.12 µM
24. CCCC(CCC)NC(=O)c1cc2c(cc1C)OCO2 [Example 17, N-(heptan-4-yl)-6-methylbenzo[d][1,3]dioxole-5-carboxamide]  0.11 µM
25. COC(=O)[C@@H](CC(C)C)NC(=O)c1cc2cc(C)ccc2o1 [Example 27, (R)-methyl 4-methyl-2-(5-methylbenzofuran-2-carboxamido)pentanoate]  0.11 µM
26. CCCC(CCC)NC(=O)c1ccc2c(c1)OC(C)O2 (stereo not drawn) [Example 18, N-(heptan-4-yl)-2-methylbenzo[d][1,3]dioxole-5-carboxamide]  0.1 µM
27. COc1ccc2c(c1)CCC2NC(=O)c1ccc(OC)c(C)c1 (racemic) [Example 121-2, (R/S)-4-Methoxy-N-(5-methoxy-2,3-dihydro-1H-inden-1-yl)-3-methylbenzamide]  0.08 µM
